Laboratory results reported in publication PMC5415745, “Drug-transporter mediated interactions between anthelminthic and antiretroviral drugs across the Caco-2 cell monolayers” (BMC Pharmacology & Toxicology, 2017).
Several values for one entry are separate records, joined by “and”; a condition that tells them apart may be missing. Equal values may be shown once.

Assays:
[1] = tested on: Caco-2 cell monolayers; experiment: Bidirectional (AP→BL, BL→AP) drug transport across Caco-2 cell monolayers in transwells: cumulative transport, Papp, efflux ratio; HPLC or radiolabeled assay; conditions: for Apical to basal transport (cumulative, receiver), Mean / Basal to apical transport (cumulative, receiver), Mean: mean n=3
[2] = as above; conditions: human
[3] = cited from earlier work
[4] = [3H] NVP alone, 60 min, individual experiments 1-3
[5] = [3H] NVP alone, 60 min, mean, n=3
[6] = [3H] NVP alone, 120 min, individual experiments 1-3
[7] = [3H] NVP alone, 120 min, mean, n=3
[8] = [3H] NVP alone, 180 min, individual experiments 1-3
[9] = [3H] NVP alone, 180 min, mean, n=3
[10] = [3H] NVP alone, 240 min, individual experiments 1-3
[11] = [3H] NVP alone, 240 min, mean, n=3
[12] = [3H] NVP alone, after 60 min, samples 1-3
[13] = labelled drug is the interacting drug
[14] = Caco-2, Papp AP → BL, mean (n=3) after 60 min, drug A alone, or label 'A + B' = transport of A in presence of interacting drug B, concentrations per Table 1
[15] = Caco-2, Papp BL → AP, mean (n=3) after 60 min, drug A alone, or label 'A + B' = transport of A in presence of interacting drug B, concentrations per Table 1
[16] = SQV alone (PZQ experiment), 60 min, mean
[17] = SQV alone (PZQ experiment), 60 min, samples 1-3
[18] = SQV alone (PZQ experiment), 120 min, mean
[19] = SQV alone (PZQ experiment), 120 min, samples 1-3
[20] = SQV alone (PZQ experiment), 180 min, mean
[21] = SQV alone (PZQ experiment), 180 min, samples 1-3
[22] = SQV alone (PZQ experiment), 240 min, mean
[23] = SQV alone (PZQ experiment), 240 min, samples 1-3
[24] = SQV alone (PZQ experiment), after 60min, mean
[25] = SQV alone, 60 min, individual experiments 1-3
[26] = SQV alone, 180 min, individual experiments 1-3
[27] = SQV alone, 240 min, individual experiments 1-3
[28] = SQV alone, after 60 min, samples 1-3
[29] = mean (n=3) after 60 min, drug A alone, or label 'A + B' = transport of A in presence of interacting drug B, concentrations per Table 1
[30] = 120 min, individual samples 1-3
[31] = 180 min, individual samples 1-3
[32] = 240 min, individual samples 1-3
[33] = samples after 60min, individual samples 1-3

For Cc1ccnc2c1NC(=O)c1cccnc1N2C1CC1 [NVP, nevirapine], the “Apical to basal transport” value [1, 4] was 78.8 pmol and 80.8 pmol and 79.4 pmol, the “Basal to apical transport” value [1, 4] was 59.7 pmol and 67.9 pmol and 77.2 pmol and the “Apical to basal transport Mean” value [1, 5] was 79.68 pmol. For the same molecule, the “Basal to apical transport Mean” value [1, 5] was 68.27 pmol, the “Apical to basal transport” value [1, 6] was 111.5 pmol and 123.2 pmol and 109.9 pmol and the “Basal to apical transport” value [1, 6] was 81.9 pmol and 91.5 pmol and 105.1 pmol. The “Apical to basal transport Mean” value [1, 7] was 114.88 pmol, the “Basal to apical transport Mean” value [1, 7] was 92.84 pmol and the “Apical to basal transport” value [1, 8] was 116.3 pmol and 120.3 pmol and 122.0 pmol. The “Basal to apical transport” value [1, 8] was 92.9 pmol and 107.5 pmol and 118.9 pmol, the “Apical to basal transport Mean” value [1, 9] was 119.53 pmol and the “Basal to apical transport Mean” value [1, 9] was 106.41 pmol. The “Apical to basal transport” value [1, 10] was 123.9 pmol and 122.5 pmol and 120.2 pmol, the “Basal to apical transport” value [1, 10] was 98.8 pmol and 112.2 pmol and 132.2 pmol and the “Apical to basal transport Mean” value [1, 11] was 122.19 pmol. The “Basal to apical transport Mean” value [1, 11] was 114.39 pmol, the “Apical to basal transport Conc. Apical” value [1, 12] was 177.1 pmol and 196.6 pmol and 189.3 pmol and the “Basal to apical transport Conc. Basal” value [1, 12] was 129.9 pmol and 207.3 pmol and 202.9 pmol. The “Efflux ratio ER” value [1, 12] was 0.80, the PappAB Papp [1, 12] was 40.3 ×10⁻⁶ cm/s and 34.9 ×10⁻⁶ cm/s and the PappBA Papp [1, 12] was 32.1 ×10⁻⁶ cm/s and 31.7 ×10⁻⁶ cm/s. For the same molecule, the “Effect on the transport of IVM” value [1, 13] was “increased”, the “Effect on the transport of PZQ” value [1, 13] was “did not affect” and the efflux ratio at 60 min ([2]; Caco-2, Efflux ratio ER, [3H] NVP alone, after 60 min, samples 1-3) was 1.03. The Papp A→B at 60 min [2, 14] was 42.7 ×10⁻⁶ cm/s, the Papp B→A at 60 min [2, 15] was 39.5 ×10⁻⁶ cm/s and the Papp A→B at 60 min ([2]; Caco-2, PappAB Papp, [3H] NVP alone, after 60 min, samples 1-3) was 52.9 ×10⁻⁶ cm/s. It also gave a Papp B→A at 60 min ([2]; Caco-2, PappBA Papp, [3H] NVP alone, after 60 min, samples 1-3) of 54.7 ×10⁻⁶ cm/s.

In the case of CC(C)(C)NC(=O)[C@@H]1C[C@@H]2CCCC[C@@H]2CN1C[C@@H](O)[C@H](Cc1ccccc1)NC(=O)[C@H](CC(N)=O)NC(=O)c1ccc2ccccc2n1 [SQV, saquinavir], the “Log Kow” value [3] is given as 2.5, the “Apical to basal transport Mean” value [1, 16] is given as 3.18 pmol and the “Basal to apical transport Mean” value [1, 16] is given as 6.29 pmol. The “Apical to basal transport” value [1, 17] was 3.93 pmol and 2.52 pmol and 3.10 pmol, the “Basal to apical transport” value [1, 17] was 5.98 pmol and 5.60 pmol and 7.29 pmol and the “Apical to basal transport Mean” value [1, 18] was 4.32 pmol. The “Basal to apical transport Mean” value [1, 18] was 11.52 pmol, the “Apical to basal transport” value [1, 19] was 4.59 pmol and 4.09 pmol and 4.29 pmol and the “Basal to apical transport” value [1, 19] was 10.77 pmol and 11.26 pmol and 12.52 pmol. The “Apical to basal transport Mean” value [1, 20] was 5.73 pmol, the “Basal to apical transport Mean” value [1, 20] was 16.09 pmol and the “Apical to basal transport” value [1, 21] was 5.76 pmol and 5.30 pmol and 6.14 pmol. The “Basal to apical transport” value [1, 21] was 16.14 pmol and 16.78 pmol and 15.35 pmol, the “Apical to basal transport Mean” value [1, 22] was 6.40 pmol and the “Basal to apical transport Mean” value [1, 22] was 20.56 pmol. For the same molecule, the “Apical to basal transport” value [1, 23] was 6.59 pmol and 5.67 pmol and 6.93 pmol, the “Basal to apical transport” value [1, 23] was 18.19 pmol and 23.27 pmol and the PappAB Mean [1, 24] was 6.56 ×10⁻⁶ cm/s. The PappBA Mean [1, 24] was 10.8 ×10⁻⁶ cm/s, the “Apical to basal transport” value [1, 25] was 2.74 pmol and 2.54 pmol and 3.32 pmol and the “Basal to apical transport” value [1, 25] was 8.18 pmol and 6.66 pmol and 9.42 pmol. For the same molecule, the “Apical to basal transport Mean” value ([1]; SQV alone, 60 min, mean, n=3) was 2.87 pmol, the “Basal to apical transport Mean” value ([1]; SQV alone, 60 min, mean, n=3) was 8.09 pmol and the “Apical to basal transport Mean” value ([1]; SQV alone, 120 min, mean, n=3) was 5.52 pmol. The “Basal to apical transport Mean” value ([1]; SQV alone, 120 min, mean, n=3) was 14.27 pmol, the “Apical to basal transport” value [1, 26] was 7.42 pmol and 7.24 pmol and 8.40 pmol and the “Basal to apical transport” value [1, 26] was 18.6 pmol and 17.14 pmol and 18.78 pmol. The “Apical to basal transport Mean” value ([1]; SQV alone, 180 min, mean, n=3) was 7.69 pmol, the “Basal to apical transport Mean” value ([1]; SQV alone, 180 min, mean, n=3) was 18.17 pmol and the “Apical to basal transport” value [1, 27] was 9.18 pmol and 8.8 pmol. For the same molecule, the “Basal to apical transport” value [1, 27] was 21.42 pmol and 26.66 pmol, the “Apical to basal transport Mean” value ([1]; SQV alone, 240 min, mean, n=3) was 9.74 pmol and the “Basal to apical transport Mean” value ([1]; SQV alone, 240 min, mean, n=3) was 23.51 pmol. The “Apical to basal transport Conc. Apical” value [1, 28] was 23.25 pmol and 22.93 pmol, the “Basal to apical transport Conc. Basal” value [1, 28] was 19.35 pmol and 21.54 pmol and 28.21 pmol and the PappAB Papp [1, 28] was 6.59 ×10⁻⁶ cm/s and 7.13 ×10⁻⁶ cm/s. For the same molecule, the PappBA Papp [1, 28] was 18.4 ×10⁻⁶ cm/s and 19.9 ×10⁻⁶ cm/s, the “Effect on the transport of PZQ” value [1, 13] was “did not affect” and the Papp AP → BL [1, 29] was 6.6 ×10⁻⁶ cm/s. For the same molecule, the Papp A→B at 60 min [2, 14] was 6.9 ×10⁻⁶ cm/s, the Papp B→A at 60 min [2, 15] was 21.1 ×10⁻⁶ cm/s and the Papp A→B at 60 min ([2]; Caco-2, PappAB Papp, SQV alone, after 60 min, samples 1-3) was 7.01 ×10⁻⁶ cm/s. It also gave a Papp B→A at 60 min ([2]; Caco-2, PappBA Papp, SQV alone, after 60 min, samples 1-3) of 25.1 ×10⁻⁶ cm/s.

With O=C1Nc2ccc(Cl)cc2[C@@](C#CC2CC2)(C(F)(F)F)O1 [EFV, efavirenz] the “Apical to basal transport (cumulative, receiver)” value ([1]; 60 min, individual samples 1-3) was 0.31 pmoles (2×) and 0.32 pmoles, the “Basal to apical transport (cumulative, receiver)” value ([1]; 60 min, individual samples 1-3) was 0.30 pmoles (2×) and 0.25 pmoles and the “Apical to basal transport (cumulative, receiver), Mean” value ([1]; 60 min) was 0.32 pmol. The “Basal to apical transport (cumulative, receiver), Mean” value ([1]; 60 min) was 0.28 pmol, the “Apical to basal transport (cumulative, receiver)” value [1, 30] was 0.61 pmol and 0.54 pmol and 0.55 pmol and the “Basal to apical transport (cumulative, receiver)” value [1, 30] was 0.53 pmol and 0.50 pmol and 0.57 pmol. For the same molecule, the “Apical to basal transport (cumulative, receiver), Mean” value ([1]; 120 min) was 0.56 pmol, the “Basal to apical transport (cumulative, receiver), Mean” value ([1]; 120 min) was 0.53 pmol and the “Apical to basal transport (cumulative, receiver)” value [1, 31] was 0.67 pmol and 0.70 pmol and 0.71 pmol. For the same molecule, the “Basal to apical transport (cumulative, receiver)” value [1, 31] was 0.69 pmol and 0.65 pmol and 0.70 pmol, the “Apical to basal transport (cumulative, receiver), Mean” value ([1]; 180 min) was 0.69 pmol and the “Basal to apical transport (cumulative, receiver), Mean” value ([1]; 180 min) was 0.68 pmol. The “Apical to basal transport (cumulative, receiver)” value [1, 32] was 0.78 pmol and 0.86 pmol and 0.82 pmol, the “Basal to apical transport (cumulative, receiver)” value [1, 32] was 0.86 pmol and 0.78 pmol and 0.84 pmol and the “Apical to basal transport (cumulative, receiver), Mean” value ([1]; 240 min) was 0.82 pmol. For the same molecule, the “Basal to apical transport (cumulative, receiver), Mean” value ([1]; 240 min) was 0.83 pmol, the “Effect on the transport of PZQ” value [1, 13] was “did not affect” and the Papp AP → BL [1, 29] was 16.5 ×10⁻⁶ cm/s. The Papp BL → AP [1, 29] was 10.8 ×10⁻⁶ cm/s, the PappAB Papp [1, 33] was 15.9 ×10⁻⁶ cm/s and 13.5 ×10⁻⁶ cm/s and the PappBA Papp [1, 33] was 9.29 ×10⁻⁶ cm/s and 9.67 ×10⁻⁶ cm/s. It also gave a Papp A→B at 60 min [2, 14] of 16.5 ×10⁻⁶ cm/s, a Papp B→A at 60 min [2, 15] of 10.8 ×10⁻⁶ cm/s and a Papp A→B at 60 min ([2]; Caco-2, PappAB, Papp, samples after 60min, individual samples 1-3) of 20 ×10⁻⁶ cm/s. The Papp B→A at 60 min ([2]; Caco-2, PappBA, Papp, samples after 60min, individual samples 1-3) was 13.4 ×10⁻⁶ cm/s.
